Measured values reported in the CheMixHub drug solubility set.

Assay: xn = mol fraction of the nth substance listed, in the solute-free solvent

Nc1ncc(Br)nc1Br + OCCO + O
solubility (g/100 g solution)
Details | 278.15 K | 283.15 K | 288.15 K | 293.15 K | 298.15 K | 303.15 K | 308.15 K | 313.15 K | 318.15 K | 323.15 K
x2 = 0.03125 | 0.00637 | 0.0078 | 0.00922 | 0.0109 | 0.0127 | 0.0144 | 0.0164 | 0.0186 | 0.0208 | 0.0231
x2 = 0.06767 | 0.0106 | 0.0129 | 0.0152 | 0.018 | 0.0209 | 0.0235 | 0.0267 | 0.0302 | 0.0336 | 0.0373
x2 = 0.1107 | 0.0164 | 0.02 | 0.0235 | 0.0276 | 0.032 | 0.036 | 0.0408 | 0.0459 | 0.0511 | 0.0566
x2 = 0.1622 | 0.0238 | 0.0288 | 0.0338 | 0.0398 | 0.046 | 0.0518 | 0.0585 | 0.0657 | 0.0731 | 0.0809
x2 = 0.225 | 0.0307 | 0.0375 | 0.0446 | 0.0526 | 0.0606 | 0.0684 | 0.0774 | 0.0866 | 0.0965 | 0.108
x2 = 0.3034 | 0.0394 | 0.0471 | 0.0562 | 0.0663 | 0.0766 | 0.0874 | 0.0983 | 0.111 | 0.124 | 0.138
x2 = 0.4038 | 0.0467 | 0.0558 | 0.0667 | 0.0788 | 0.0911 | 0.104 | 0.118 | 0.133 | 0.148 | 0.164
x2 = 0.5373 | 0.0508 | 0.0614 | 0.0739 | 0.0875 | 0.103 | 0.116 | 0.132 | 0.148 | 0.165 | 0.184
x2 = 0.7232 | 0.0528 | 0.0647 | 0.077 | 0.0912 | 0.106 | 0.12 | 0.137 | 0.154 | 0.173 | 0.194

CC1=NNC(=O)N(N=Cc2cccnc2)C1 + CS(C)=O + CC(C)O
solubility (g/100 g solution)
Details | 293.15 K | 298.15 K | 303.15 K | 308.15 K | 313.15 K | 318.15 K
x2 = 0.1614 | 0.482 | 0.555 | 0.623 | 0.721 | 0.847 | 0.956
x2 = 0.3392 | 0.992 | 1.11 | 1.25 | 1.39 | 1.57 | 1.77
x2 = 0.5359 | 1.42 | 1.59 | 1.78 | 2.05 | 2.32 | 2.58
x2 = 0.7549 | 1.8 | 2.01 | 2.28 | 2.59 | 2.91 | 3.28

O=c1cc(CBr)c2ccccc2[nH]1 + CC(C)O + O
solubility (g/100 g solution)
Details | 278.15 K | 283.15 K | 288.15 K | 293.15 K | 298.15 K | 303.15 K | 308.15 K | 313.15 K | 318.15 K
x2 = 0.03225 | 0.0121 | 0.0159 | 0.0207 | 0.0271 | 0.0355 | 0.0446 | 0.057 | 0.0718 | 0.0897
x2 = 0.06974 | 0.0203 | 0.0259 | 0.0329 | 0.0413 | 0.0516 | 0.0641 | 0.079 | 0.0958 | 0.119
x2 = 0.1139 | 0.03 | 0.0369 | 0.0456 | 0.0556 | 0.0685 | 0.0827 | 0.099 | 0.118 | 0.14
x2 = 0.1666 | 0.0397 | 0.0483 | 0.0576 | 0.0694 | 0.082 | 0.0986 | 0.115 | 0.136 | 0.158
x2 = 0.2307 | 0.0498 | 0.0596 | 0.0697 | 0.0834 | 0.0971 | 0.113 | 0.131 | 0.151 | 0.173
x2 = 0.3103 | 0.0585 | 0.0689 | 0.0799 | 0.0928 | 0.106 | 0.123 | 0.141 | 0.161 | 0.18
x2 = 0.4117 | 0.0623 | 0.0721 | 0.0833 | 0.0972 | 0.112 | 0.127 | 0.144 | 0.163 | 0.184
x2 = 0.5454 | 0.065 | 0.0751 | 0.0871 | 0.1 | 0.114 | 0.13 | 0.147 | 0.164 | 0.185
x2 = 0.7297 | 0.0639 | 0.0739 | 0.0847 | 0.0962 | 0.11 | 0.124 | 0.14 | 0.158 | 0.176

CC1=NNC(=O)N(N=Cc2cccnc2)C1 + CN1CCCC1=O + CC(C)O
solubility (g/100 g solution)
Details | 278.15 K | 283.15 K | 288.15 K | 293.15 K | 298.15 K | 303.15 K | 308.15 K | 313.15 K | 318.15 K
x2 = 0.1316 | 0.161 | 0.188 | 0.221 | 0.258 | 0.3 | 0.347 | 0.402 | 0.461 | 0.529
x2 = 0.2878 | 0.235 | 0.273 | 0.319 | 0.37 | 0.429 | 0.494 | 0.57 | 0.652 | 0.746
x2 = 0.4763 | 0.292 | 0.339 | 0.395 | 0.457 | 0.529 | 0.608 | 0.701 | 0.801 | 0.914
x2 = 0.708 | 0.333 | 0.386 | 0.449 | 0.519 | 0.601 | 0.689 | 0.794 | 0.906 | 1.03

Nc1cc(-c2ccncc2)c[nH]c1=O + CN(C)C=O + O
solubility (g/100 g solution)
Details | 278.15 K | 283.15 K | 288.15 K | 293.15 K | 298.15 K | 303.15 K | 308.15 K | 313.15 K | 318.15 K | 323.15 K
x2 = 0.02666 | 0.00203 | 0.00236 | 0.0028 | 0.00324 | 0.00375 | 0.00428 | 0.00488 | 0.00552 | 0.00624 | 0.00705
x2 = 0.05806 | 0.00422 | 0.00489 | 0.00574 | 0.00661 | 0.00759 | 0.00861 | 0.00975 | 0.011 | 0.0123 | 0.0139
x2 = 0.09556 | 0.00683 | 0.00794 | 0.00916 | 0.0106 | 0.0122 | 0.014 | 0.0156 | 0.0177 | 0.0198 | 0.0224
x2 = 0.1412 | 0.00979 | 0.0113 | 0.0131 | 0.015 | 0.0171 | 0.0195 | 0.0221 | 0.0248 | 0.0277 | 0.0316
x2 = 0.1978 | 0.0124 | 0.0143 | 0.0167 | 0.0193 | 0.022 | 0.0249 | 0.0283 | 0.0322 | 0.036 | 0.0407
x2 = 0.27 | 0.0152 | 0.0177 | 0.0208 | 0.0238 | 0.0272 | 0.0308 | 0.0348 | 0.0395 | 0.0442 | 0.0497
x2 = 0.3652 | 0.0161 | 0.0195 | 0.0231 | 0.0268 | 0.0307 | 0.035 | 0.0397 | 0.0451 | 0.0506 | 0.0572
x2 = 0.4965 | 0.0192 | 0.0227 | 0.0267 | 0.0306 | 0.035 | 0.0398 | 0.0452 | 0.0516 | 0.0579 | 0.0654
x2 = 0.6893 | 0.0186 | 0.0221 | 0.0258 | 0.0305 | 0.0349 | 0.0402 | 0.0458 | 0.0523 | 0.0593 | 0.0673

Nc1ncc(Br)nc1Br + CC(C)O + O
solubility (g/100 g solution)
Details | 278.15 K | 283.15 K | 288.15 K | 293.15 K | 298.15 K | 303.15 K | 308.15 K | 313.15 K | 318.15 K | 323.15 K
x2 = 0.03225 | 0.0151 | 0.0182 | 0.0212 | 0.0248 | 0.0285 | 0.032 | 0.0361 | 0.0405 | 0.0448 | 0.0495
x2 = 0.06974 | 0.0399 | 0.0475 | 0.0548 | 0.0636 | 0.0724 | 0.0809 | 0.0905 | 0.101 | 0.111 | 0.122
x2 = 0.1139 | 0.0745 | 0.0882 | 0.101 | 0.117 | 0.133 | 0.148 | 0.165 | 0.183 | 0.202 | 0.221
x2 = 0.1666 | 0.109 | 0.129 | 0.148 | 0.171 | 0.194 | 0.218 | 0.242 | 0.269 | 0.297 | 0.327
x2 = 0.2307 | 0.133 | 0.157 | 0.181 | 0.21 | 0.24 | 0.273 | 0.304 | 0.34 | 0.377 | 0.42
x2 = 0.3103 | 0.153 | 0.178 | 0.21 | 0.244 | 0.281 | 0.318 | 0.358 | 0.403 | 0.449 | 0.5
x2 = 0.4117 | 0.166 | 0.198 | 0.233 | 0.273 | 0.312 | 0.358 | 0.403 | 0.453 | 0.505 | 0.567
x2 = 0.5454 | 0.181 | 0.216 | 0.255 | 0.298 | 0.344 | 0.398 | 0.449 | 0.51 | 0.573 | 0.64
x2 = 0.7297 | 0.197 | 0.236 | 0.277 | 0.324 | 0.376 | 0.432 | 0.496 | 0.562 | 0.634 | 0.721

Nc1ncc(Br)nc1Br + CCO + O
solubility (g/100 g solution)
Details | 278.15 K | 283.15 K | 288.15 K | 293.15 K | 298.15 K | 303.15 K | 308.15 K | 313.15 K | 318.15 K | 323.15 K
x2 = 0.04165 | 0.0211 | 0.0254 | 0.0296 | 0.0345 | 0.0394 | 0.044 | 0.0494 | 0.0552 | 0.0608 | 0.0668
x2 = 0.08908 | 0.0644 | 0.0768 | 0.0889 | 0.102 | 0.116 | 0.128 | 0.142 | 0.158 | 0.172 | 0.188
x2 = 0.1436 | 0.124 | 0.148 | 0.171 | 0.197 | 0.222 | 0.245 | 0.271 | 0.299 | 0.326 | 0.354
x2 = 0.2068 | 0.179 | 0.214 | 0.249 | 0.286 | 0.324 | 0.358 | 0.395 | 0.438 | 0.479 | 0.521
x2 = 0.2812 | 0.211 | 0.256 | 0.304 | 0.349 | 0.397 | 0.444 | 0.493 | 0.546 | 0.604 | 0.661
x2 = 0.3698 | 0.245 | 0.296 | 0.35 | 0.412 | 0.474 | 0.527 | 0.589 | 0.656 | 0.726 | 0.798
x2 = 0.4772 | 0.274 | 0.338 | 0.41 | 0.481 | 0.546 | 0.618 | 0.693 | 0.776 | 0.863 | 0.957
x2 = 0.6101 | 0.321 | 0.396 | 0.476 | 0.557 | 0.644 | 0.729 | 0.82 | 0.919 | 1.03 | 1.15
x2 = 0.7788 | 0.4 | 0.489 | 0.59 | 0.683 | 0.792 | 0.891 | 1 | 1.13 | 1.26 | 1.4
